Source: ChEMBL document CHEMBL3877275, “Dihydroorotate dehydrogenase: A drug target for the development of antimalarials” (Eur J Med Chem, 2017)

What was measured:
[1] = Inhibition of Plasmodium falciparum DHODH expressed in Escherichia coli using L-dihydroorotate as substrate by DCIP-based spectrophotometric method
[2] = tested on: Plasmodium falciparum; experiment: Antiparasitic activity against Plasmodium falciparum NF54 infected in human erythrocytes by [3H]-hypoxanthine incorporation assay; assay type: functional, cell-based
[3] = Inhibition of Plasmodium falciparum DHODH
[4] = Selectivity ratio of IC50 for human DHODH to IC50 for Plasmodium falciparum DHODH
[5] = Inhibition of Plasmodium falciparum DHODH using L-dihydroorotate as substrate after 20 mins by DCIP-based assay

Row | Compound | IC50 [1] [nM] | IC50 [2] [µM] | other results
1 | Cc1cc(Nc2cc(F)c(C(F)(F)F)c(F)c2)n2nc(C(F)(F)F)nc2n1 | 22 | – | –
2 | Cc1c(C(=O)Nc2cc(Cl)cc(Cl)c2)cccc1[N+](=O)[O-] | – | 5 to 12 | IC50 [3]: 20 to 800 nM; Ratio IC50 [4]: 70 to 12500
3 | COc1ccc2c(c1)ncn2-c1ccc(C(=O)NC2CC2)s1 | – | – | IC50 [5]: 22 nM
4 | Cc1cc(Nc2cc(F)c(C(F)(F)F)c(F)c2)n2nc(C(C)(F)F)nc2n1 | 12 | – | –
5 | Cc1cc(Nc2ccc(C(F)(F)F)cc2)n2nc(C(F)(F)F)nc2n1 | 35 | – | –
6 | Cc1cc(Nc2ccc(C(F)(F)F)c(F)c2)n2nc(C(F)(F)F)nc2n1 | 35 | – | –
7 | N#Cc1cccc2c1ncn2-c1ccc(C(=O)NC2CC2)s1 | – | – | IC50 [5]: 50 nM
8 | COc1cccc2c1ncn2-c1ccc(C(=O)NC2CC2)s1 | – | – | IC50 [5]: 44 nM

Continued, in another order:

Row | IC50 [1] [nM] | IC50 [2] [µM] | Compound | other results
9 | – | 5 to 12 | CCOC(=O)C(=CNc1cccc(N(C)C)c1)C(=O)OCC | –
10 | – | 5 to 12 | O=C(Nc1ccc(Cl)cc1Cl)c1ccc2ccccc2c1 | IC50 [3]: 20 to 800 nM; Ratio IC50 [4]: 70 to 12500
11 | 770 | – | Cc1cc(Nc2ccc(C(F)(F)F)cc2)n2ccnc2n1 | –
12 | – | 5 to 12 | COc1ccccc1NC(=O)Nc1cccc2ccccc12 | IC50 [3]: 20 to 800 nM; Ratio IC50 [4]: 70 to 12500
